Source: PMC5039535, “Dichotocejpins A–C: New Diketopiperazines from a Deep-Sea-Derived Fungus Dichotomomyces cejpii FS110” (Marine Drugs, 2016)

Key:
α-glucosidase = α-glucosidase inhibitory activity assay; type: biochemical; conditions: in vitro; mean ± s, n=3
Method: All compounds were evaluated in vitro for α-glucosidase inhibitory activities.
An assay of α-glucosidase inhibitory activity was performed as previously described.

HepG-2 tumor cell line = assay: SRB cytotoxicity assay, HepG-2; type: cell-based, human; conditions: SRB method, mean ± s, n=3
Method: (§1) The in vitro cytotoxicities of compounds 1–11 were evaluated against the SF-268, MCF-7, NCI-H460, and HepG-2 tumor cell lines by the Sulforhodamine B (SRB) method.
(§2) Cytotoxicities of compounds (1–11) were assayed against four tumor cell lines SF-268, MCF-7, NCI-H460, and HepG-2. Assays were performed by the SRB method.

NCI-H460 tumor cell line = assay: SRB cytotoxicity assay, NCI-H460; type: cell-based, human; conditions: SRB method, mean ± s, n=3
Method: as §1, §2

[1] = tested on: SF-268, MCF-7, NCI-H460, and HepG-2 tumor cell lines; assay: SRB cytotoxicity, four tumor cell lines taken together; type: cell-based, human; conditions: for cytotoxic / inhibitory activity against the four tumor cell lines (in words): SF-268, MCF-7, NCI-H460, HepG-2, SRB method; for IC50: Homo sapiens, range over SF-268, MCF-7, NCI-H460, HepG-2, read-out: IC50 values against the four tumor cell lines
Method: as §1, §2

MCF-7 tumor cell line = assay: SRB cytotoxicity assay, MCF-7; type: cell-based, human; conditions: SRB method, mean ± s, n=3
Method: as §1, §2

SF-268 tumor cell line = assay: SRB cytotoxicity assay, SF-268; type: cell-based, human; conditions: SRB method, mean ± s, n=3
Method: as §1, §2

| Molecule | IC50 (α-glucosidase) [µM] | IC50 (HepG-2 tumor cell line; Homo sapiens, HepG2) [µM] | IC50 (NCI-H460 tumor cell line; Homo sapiens, NCI-H460) [µM] | cytotoxic / inhibitory activity against the four tumor cell lines (in words) [1] | IC50 (MCF-7 tumor cell line; Homo sapiens, MCF7) [µM] | IC50 (SF-268 tumor cell line; Homo sapiens, SF-268) [µM] | IC50 [1] [µM] | IC50 (HepG-2 tumor cell line) [µM] | IC50 (NCI-H460 tumor cell line) [µM] | IC50 (MCF-7 tumor cell line) [µM] | IC50 (SF-268 tumor cell line) [µM] |
| --- | --- | --- | --- | --- | --- | --- | --- | --- | --- | --- | --- |
| CSC1(CO)C(=O)n2c(cc3ccccc32)C(=O)N1C (stereo not shown) [Compound 1, dichotocejpin A] | 138 ± 6.7 | 28.9 ± 3 | > 100 | inactive or weak | 29.5 ± 2.3 | 35.7 ± 2.1 |  |  |  |  |  |
| C=C1C(=O)N2C3C(=CC=CC3OC(C)=O)CC2(O)C(=O)N1C (stereo not shown) [Compound 2, dichotocejpin B] | > 500 | > 100 | > 100 | inactive or weak | > 100 | > 100 |  |  |  |  |  |
| CN1C(=O)[C@]2(O)Cc3ccccc3N2C(=O)[C@H]1CO [Compound 3, dichotocejpin C] | > 500 | > 100 | > 100 | inactive or weak | > 100 | > 100 |  |  |  |  |  |
| CN1C(=O)[C@]23Cc4ccccc4N2C(=O)[C@@]1(CO)SS3 [Compound 4, 6-deoxy-5a,6-didehydrogliotoxin] | > 500 | 1.52 ± 0.03 | 1.27 ± 0.04 |  | 0.68 ± 0.02 | 1.35 ± 0.05 | 0.08 to 1.52 |  |  |  |  |
| CN1C(=O)[C@]23CC4=CC=C[C@H](O)[C@H]4N2C(=O)[C@@]1(CO)SS3 [Compound 5, gliotoxin] | > 500 | 0.21 ± 0.01 | 0.24 ± 0.01 |  | 0.08 | 0.24 ± 0.1 | 0.08 to 1.52 |  |  |  |  |
| CC(=O)O[C@H]1C=CC=C2C[C@]34SS[C@](CO)(C(=O)N3C21)N(C)C4=O (stereo partly shown) [Compound 6, acetylgliotoxin] | > 500 | 0.49 ± 0.07 | 0.32 ± 0.02 |  | 0.22 ± 0.04 | 0.25 ± 0.03 | 0.08 to 1.52 |  |  |  |  |
| CS[C@@]1(CO)NC(=O)[C@@](Cc2ccccc2)(SC)NC1=O [Compound 7, bis-N-norgliovictin] | > 500 | > 100 | > 100 |  | > 100 | > 100 |  |  |  |  |  |
| CSC1(Cc2ccccc2)NC(=O)C(CO)NC1=O (stereo not shown) [Compound 8, 3-benzyl-6-(hydroxymethyl)-3-(methylthio)piperazine-2,5-dione] | > 500 | > 100 | > 100 |  | > 100 | > 100 |  |  |  |  |  |
| CS[C@]1(CO)C(=O)N2[C@H]3C(=CC=C[C@@H]3OC(C)=O)C[C@@]2(SC)C(=O)N1C [Compound 10, 6-acetylbis(methylthio)gliotoxin] | > 500 | 7 ± 0.17 | 5.4 ± 0.6 | significant inhibitory activities | 3.1 ± 0.1 | 34 ± 3.6 |  |  |  |  |  |
| C=c1c(=O)n2c(cc3ccccc32)c(=O)n1C [Compound 11, 1,2,3,4-tetrahydro-2-methyl-3-methylene-1,4-dioxopyrazino[1,2-a]indole] | > 500 | 2.29 ± 0.3 | 12.3 ± 0.24 | significant inhibitory activities | 4.67 ± 1.4 | 3.3 ± 0.28 |  |  |  |  |  |
| N.N.[Cl][Pt][Cl] [cisplatin, reference compound] |  |  |  |  |  |  |  | 1.39 ± 0.18 | 2.43 ± 0.15 | 3.09 ± 0.27 | 2.37 ± 0.35 |
| bisdethiobis(methylthio)gliotoxin [Compound 9] | > 500 |  |  |  |  |  |  | > 100 | > 100 | > 100 | > 100 |
